Legend:
[1] = test system: HIV-IIIb; experiment: Test A: Antiviral assay in MT4 cells; assay type: cell-based, HIV-1; conditions: Human immunodeficiency virus 1, IIIB, MT4, 120 h, read-out: % inhibition at 2 μM, percent inhibition of virus-induced cell killing, from dose response curve at 2 uM drug; MT-4 cells infected with HIV-IIIb, 5 days, CellTiter-Glo
[2] = in vitro
Summary of the method: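 Cytoprotection read-out: CellTiter-Glo chemiluminescence after 5 days at 37 °C of HIV-IIIb-infected MT-4 cells (m.o.i. 0.003) with compound in 10-point 3-fold dilutions, quadruplicate, 10% FBS. Cytotoxicity (CC50) measured identically without virus.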

[3] = human, uninfected MT-4 cells, CC50 (nM), same protocol as Test A, CellTiter-Glo

NC(=O)c1cccc(-c2cccnc2[C@H](Cc2cc(F)cc(F)c2)NC(=O)Cc2c[nH]c3ccc(N)cc23)c1 [Example 560, (S)-3-(2-(1-(2-(5-amino-1H-indol-3-yl)acetamido)-2-(3,5-difluorophenyl)ethyl)pyridin-3-yl)benzamide]
inhibition at 2 µM [1]: 112%
CC50 at 5 days [2, 3]: > 53000 nM

NC(=O)c1cc(-c2cccnc2[C@H](Cc2cc(F)cc(F)c2)NC(=O)Cn2nc(C(F)(F)F)c3c2C(=O)C2CC32)ccc1F (stereo partly drawn) [Example 561B, 5-(2-((1S)-2-(3,5-difluorophenyl)-1-(2-(5-oxo-3-(trifluoromethyl)-3b,4,4a,5-tetrahydro-1H-cyclopropa[3,4]cyclopenta[1,2-c]pyrazol-1-yl)acetamido)ethyl)pyridin-3-yl)-2-fluorobenzamide]
inhibition at 2 µM [1]: 8%
CC50 at 5 days [2, 3]: 29000 nM

NC(=O)c1cc(-c2cccnc2[C@H](Cc2cc(F)cc(F)c2)NC(=O)Cn2c3c(c4ccccc42)CCCC3)ccc1F [Example 563, (S)-5-(2-(2-(3,5-difluorophenyl)-1-(2-(3,4-dihydro-1H-carbazol-9(2H)-yl)acetamido)ethyl)pyridin-3-yl)-2-fluorobenzamide]
inhibition at 2 µM [1]: 62%
CC50 at 5 days [2, 3]: 27000 nM

Cc1cc2ncn(CC(=O)N[C@@H](Cc3cc(F)cc(F)c3)c3ncccc3-c3ccc(F)c(C(N)=O)c3)c2cc1C [Example 564, (S)-5-(2-(2-(3,5-difluorophenyl)-1-(2-(5,6-dimethyl-1H-benzo[d]imidazol-1-yl)acetamido)ethyl)pyridin-3-yl)-2-fluorobenzamide]
inhibition at 2 µM [1]: 100%
CC50 at 5 days [2, 3]: 10300 nM

NC(=O)c1cc(-c2cccnc2[C@H](Cc2cc(F)cc(F)c2)NC(=O)Cn2c(=O)n(C3=CCCCC3)c3ccccc32)ccc1F [Example 567, (S)-5-(2-(1-(2-(3-cyclohexenyl-2-oxo-2,3-dihydro-1H-benzo[d]imidazol-1-yl)acetamido)-2-(3,5-difluorophenyl)ethyl)pyridin-3-yl)-2-fluorobenzamide]
inhibition at 2 µM [1]: 11%
CC50 at 5 days [2, 3]: 15800 nM

NC(=O)c1cc(-c2cccnc2[C@H](Cc2cc(F)cc(F)c2)NC(=O)Cn2ccc3cc(F)c(Cl)cc32)ccc1F [Example 568, (S)-5-(2-(1-(2-(6-chloro-5-fluoro-1H-indol-1-yl)acetamido)-2-(3,5-difluorophenyl)ethyl)pyridin-3-yl)-2-fluorobenzamide]
inhibition at 2 µM [1]: 42%
CC50 at 5 days [2, 3]: 11400 nM

NC(=O)c1cccc(-c2cccnc2[C@H](Cc2cc(F)cc(F)c2)NC(=O)Cc2ccccn2)c1 [Example 569, (S)-3-(2-(2-(3,5-difluorophenyl)-1-(2-(pyridin-2-yl)acetamido)ethyl)pyridin-3-yl)benzamide]
inhibition at 2 µM [1]: 11%
CC50 at 5 days [2, 3]: > 53000 nM

NC(=O)c1cc(-c2cccnc2[C@H](Cc2cc(F)cc(F)c2)NC(=O)Cn2cc(C(F)(F)F)cn2)ccc1F [Example 570, (S)-5-(2-(2-(3,5-difluorophenyl)-1-(2-(4-(trifluoromethyl)-1H-pyrazol-1-yl)acetamido)ethyl)pyridin-3-yl)-2-fluorobenzamide]
inhibition at 2 µM [1]: 5%
CC50 at 5 days [2, 3]: > 53200 nM

NC(=O)c1cc(-c2cccnc2[C@H](Cc2cc(F)cc(F)c2)NC(=O)Cn2c3c(c4ccccc42)C(=O)CCC3)ccc1F [Example 574D, (S)-5-(2-(2-(3,5-difluorophenyl)-1-(2-(4-oxo-3,4-dihydro-1H-carbazol-9(2H)-yl)acetamido)ethyl)pyridin-3-yl)-2-fluorobenzamide]
inhibition at 2 µM [1]: 24%
CC50 at 5 days ([2]; human, CC50 (nM), uninfected MT-4 cells, same protocol as Test A, CellTiter-Glo): 52500 nM

Cc1cc2cc(F)ccc2n1CC(=O)N[C@@H](Cc1cc(F)cc(F)c1)c1ncccc1-c1cccc(C(N)=O)c1 [Example 575B, (S)-3-(2-(2-(3,5-difluorophenyl)-1-(2-(5-fluoro-2-methyl-1H-indol-1-yl)acetamido)ethyl)pyridin-3-yl)benzamide]
inhibition at 2 µM [1]: 14%
CC50 at 5 days [2, 3]: 17400 nM

COC1CN(C(=O)c2cc(C(C)C)n(CC(=O)N[C@@H](Cc3cc(F)cc(F)c3)c3ncccc3-c3ccc(F)c(C(N)=O)c3)n2)C1 [Example 576B, (S)-5-(2-(2-(3,5-difluorophenyl)-1-(2-(5-isopropyl-3-(3-methoxyazetidine-1-carbonyl)-1H-pyrazol-1-yl)acetamido)ethyl)pyridin-3-yl)-2-fluorobenzamide]
inhibition at 2 µM [1]: 2%
CC50 at 5 days [2, 3]: > 53200 nM

NC(=O)c1cc(-c2cccnc2[C@H](Cc2cc(F)cc(F)c2)NC(=O)Cn2c(CN3CCOCC3)nc3ccccc32)ccc1F [Example 577, (S)-5-(2-(2-(3,5-difluorophenyl)-1-(2-(2-(morpholinomethyl)-1H-benzo[d]imidazol-1-yl)acetamido)ethyl)pyridin-3-yl)-2-fluorobenzamide]
inhibition at 2 µM [1]: 20%
CC50 at 5 days [2, 3]: > 53200 nM

NC(=O)c1cc(-c2cccnc2[C@H](Cc2cc(F)cc(F)c2)NC(=O)C(CO)c2ccccc2)ccc1F (stereo partly drawn) [Example 578, 5-(2-((1S)-2-(3,5-difluorophenyl)-1-(3-hydroxy-2-phenylpropanamido)ethyl)pyridin-3-yl)-2-fluorobenzamide]
inhibition at 2 µM [1]: 15%
CC50 at 5 days [2, 3]: > 53200 nM

COC1CN(C(=O)Cc2c(C)n(CC(=O)N[C@@H](Cc3cc(F)cc(F)c3)c3ncccc3-c3ccc(F)c(C(N)=O)c3)c3ccccc23)C1 [Example 579D, (S)-5-(2-(2-(3,5-difluorophenyl)-1-(2-(3-(2-(3-methoxyazetidin-1-yl)-2-oxoethyl)-2-methyl-1H-indol-1-yl)acetamido)ethyl)pyridin-3-yl)-2-fluorobenzamide]
inhibition at 2 µM [1]: 18%
CC50 at 5 days [2, 3]: > 53200 nM

NS(=O)(=O)c1cc(-c2cccnc2[C@H](Cc2cc(F)cc(F)c2)NC(=O)Cc2c[nH]c3ccc(F)cc23)ccc1F [Example 580F, (S)—N-(2-(3,5-difluorophenyl)-1-(3-(4-fluoro-3-sulfamoylphenyl)pyridin-2-yl)ethyl)-2-(5-fluoro-1H-indol-3-yl)acetamide]
inhibition at 2 µM [1]: 95%
CC50 at 5 days [2, 3]: 32600 nM

Cc1cc2cn(CC(=O)N[C@@H](Cc3cc(F)cc(F)c3)c3ncccc3-c3ccc(F)c(C(N)=O)c3)nc2cc1C [Example 583, (S)-5-(2-(2-(3,5-difluorophenyl)-1-(2-(5,6-dimethyl-2H-indazol-2-yl)acetamido)ethyl)pyridin-3-yl)-2-fluorobenzamide]
inhibition at 2 µM [1]: 28%
CC50 at 5 days [2, 3]: 23200 nM

NCc1ccc2c(CC(=O)N[C@@H](Cc3cc(F)cc(F)c3)c3ncccc3-c3cccc(C(N)=O)c3)c[nH]c2c1 [Example 584, (S)-3-(2-(1-(2-(6-(aminomethyl)-1H-indol-3-yl)acetamido)-2-(3,5-difluorophenyl)ethyl)pyridin-3-yl)benzamide]
inhibition at 2 µM [1]: 93%
CC50 at 5 days [2, 3]: 7250 nM

NC(=O)c1cc(-c2cccnc2[C@H](Cc2cc(F)cc(F)c2)NC(=O)Cn2ccc3cc(Cl)ccc32)ccc1F [Example 585, (S)-5-(2-(1-(2-(5-chloro-1H-indol-1-yl)acetamido)-2-(3,5-difluorophenyl)ethyl)pyridin-3-yl)-2-fluorobenzamide]
inhibition at 2 µM [1]: 58%
CC50 at 5 days [2, 3]: 13700 nM

CCC(C(=O)N[C@@H](Cc1cc(F)cc(F)c1)c1ncccc1-c1ccc(F)c(C(N)=O)c1)n1cnc2cc(C)c(C)cc21 (stereo partly drawn) [Example 587C, 5-(2-((1S)-2-(3,5-difluorophenyl)-1-(2-(5,6-dimethyl-1H-benzo[d]imidazol-1-yl)butanamido)ethyl)pyridin-3-yl)-2-fluorobenzamide]
inhibition at 2 µM [1]: 93%
CC50 at 5 days [2, 3]: 23000 nM

NC(=O)c1cc(-c2cccnc2[C@H](Cc2cc(F)cc(F)c2)NC(=O)Cn2ncc3ccc(O)cc32)ccc1F [Example 588, (S)-5-(2-(2-(3,5-difluorophenyl)-1-(2-(6-hydroxy-1H-indazol-1-yl)acetamido)ethyl)pyridin-3-yl)-2-fluorobenzamide]
inhibition at 2 µM [1]: 2%
CC50 at 5 days [2, 3]: 21500 nM

NC(=O)c1cc(-c2cccnc2[C@H](Cc2cc(F)cc(F)c2)NC(=O)Cn2ccc3ccc(C(F)(F)F)cc32)ccc1F [Example 591, (S)-5-(2-(2-(3,5-difluorophenyl)-1-(2-(6-(trifluoromethyl)-1H-indol-1-yl)acetamido)ethyl)pyridin-3-yl)-2-fluorobenzamide]
inhibition at 2 µM [1]: 15%
CC50 at 5 days [2, 3]: 14200 nM

NC(=O)c1cc(-c2cccnc2[C@H](Cc2cc(F)cc(F)c2)NC(=O)Cc2ccccc2)ccc1F [Example 592]
inhibition at 2 µM [1]: 8%
CC50 at 5 days [2, 3]: > 53200 nM

Cc1cc2[nH]cc(CC(=O)N[C@@H](Cc3cc(F)cc(F)c3)c3ncccc3-c3cccc(C(N)=O)c3)c2cc1O [Example 593, (S)-3-(2-(2-(3,5-difluorophenyl)-1-(2-(5-hydroxy-6-methyl-1H-indol-3-yl)acetamido)ethyl)pyridin-3-yl)benzamide]
inhibition at 2 µM [1]: 52%
CC50 at 5 days [2, 3]: > 53000 nM

NC(=O)c1cccc(-c2cccnc2[C@H](Cc2cc(F)cc(F)c2)NC(=O)Cn2ccc3cc(F)c(F)cc32)c1 [Example 594B, (S)-3-(2-(1-(2-(5,6-difluoro-1H-indol-1-yl)acetamido)-2-(3,5-difluorophenyl)ethyl)pyridin-3-yl)benzamide]
inhibition at 2 µM [1]: 12%
CC50 at 5 days [2, 3]: 13400 nM

O=C(Cn1nc(C(F)(F)F)c2c1CC1CC21)N[C@@H](Cc1cc(F)cc(F)c1)c1ncccc1-c1cnc2[nH]ccc2c1 (stereo partly drawn) [Example 595, N—((S)-1-(3-(1H-pyrrolo[2,3-b]pyridin-5-yl)pyridin-2-yl)-2-(3,5-difluorophenyl)ethyl)-2-(3-(trifluoromethyl)-3b,4,4a,5-tetrahydro-1H-cyclopropa[3,4]cyclopenta[1,2-c]pyrazol-1-yl)acetamide]
inhibition at 2 µM [1]: 99%
CC50 at 5 days [2, 3]: 12700 nM

NC(=O)c1cccc(-c2cccnc2[C@H](Cc2cc(F)cc(F)c2)NC(=O)Cc2c[nH]c3ccc(C(F)(F)F)cc23)c1 [Example 596, (S)-3-(2-(2-(3,5-difluorophenyl)-1-(2-(5-(trifluoromethyl)-1H-indol-3-yl)acetamido)ethyl)pyridin-3-yl)benzamide]
inhibition at 2 µM [1]: 96%
CC50 at 5 days [2, 3]: 10900 nM

— patent US9540343B2 (Gilead Sciences, Inc., priority 2011, dated 2017)
